Tests used:
Akt = test: Activation of Akt by different selenium compounds in PC-3 cells, immunoblot; assay type: cell-based, human; conditions: 125 μM, 6 hours, serum starved PC-3 cells
From the text: Signal intensities from the developed films were scanned and intensities of active Akt correlated to total Akt levels were plotted.

[1] = tested on: DU145 prostate cancer cells; conditions: cited from earlier work
[2] = tested on: human prostate cancer PC-3 cells; test: Cell toxicity by Trypan Blue Exclusion, selenate versus selenite; conditions: 5 μM or 50 μM, 24 to 96 hours
Protocol: 5×10^3 human prostate cancer PC-3 cells were seeded in a 24-well dish and 8 hours later were treated with either 5 μM or 50 μM of selenate or selenite. The dose range of 5 μM or 50 μM is equivalent to 0.1 mg/kg to 1.25 mg/kg. Cells were harvested at 24, 48, 72 and 96 hours following the addition of selenate or selenite and the percentage of viable cells as assessed by Trypan Blue staining was determined.
All cells in the tissue culture wells were then harvested sequentially at periods between 24 and 96 hours following addition of the treatments. The percentage of viable cells were then determined using the Trypan Blue exclusion assay.

β-tubulin = β-tubulin levels in treated PC-3 cell lysates; assay type: cell-based, human
Histone H2A.X = conditions: 500 μM
Protocol: 5×10^5 PC-3 cells were plated in a 6 well dish and 24 hours later cells were treated with paclitaxel at 1 μg/mL or 10 μg/mL or selenate 500 μM (19 mg/kg) or selenite 500 μM (18 mg/kg) for the indicated times. Cells were then washed in PBS, lysed in ELB lysis buffer and whole cell lysates run on a SDS-PAGE gel and blotted and probed with the indicated antibodies. Phosphorylation of Histone H2AX occurs within minutes of DNA damage, typically via DNA double or single strand breaks and is a very sensitive readout of DNA damage.
To ascertain the differences between selenate, selenite and the taxane, paclitaxel in inducing DNA damage PC-3 cells were treated with these compounds for increasing time periods then lysed. The protein extracts were probed for phosphorylation of Histone H2A.X using a phosphorylation specific antibody.

[3] = at certain doses; cited from earlier work
PC-3 cells = test: MTT growth assay; assay type: cell-based, human; conditions: 0.25 and 0.5 mM, 72 hour
Protocol: MTT Growth Assays involved plating 1×10^3 PC-3 cells per well in a 96 well plate and allowing the cells to attach overnight. […] The controls for this experiment received an equal volume of LY294002 diluent (DMSO). MTT growth assays were then performed according to the manufacturer's protocol (Sigma).

[4] = tested on: cell cycle regulatory proteins (cyclin D1, cdk4, cdk6, p27KIP1, p21CIP1); test: Immunoblot of cell cycle regulatory proteins in PC-3 cells; assay type: cell-based, human; conditions: 0.5 mM, compared to control (0 hours), FIG. 3C
From the text: The following antibodies were obtained from Cell Signaling Technology (Beverly, Mass., USA) unless otherwise stated: anti-p27^KIP1 (bd Pharmingen), anti-p21^CIP1 , ANTI-CYCLIN d1, ANTI-CYCLIN d3, ANTI-CDK4, ANTI-CDK6, ANTI-PHOSPHO rb (Ser807/811), anti-RB, anti-phospho Akt (Ser473), anti-phospho Akt (Thre308), anti-Akt, anti-phospho PDK1 (Ser241), anti-phospho PDK1 (Tyr373/376), anti-phospho GSK-3β, anti-phospho mTOR (Ser2448), anti-mTOR, anti-βIII tubulin (Promega).
To determine the effect of selenate on the phosphorylation of proteins involved in the PI3K/Akt signaling cascade, 5×10^5 PC-3 cells were allowed to attach for 10 hours. […] Cells were lysed in ELB (250 mM NaCl, 50 mM HEPES pH 7.0, 5 mM EDTA, 0.5 mM DTT, 0.2% TX100, 20 mM sodium fluoride, 2 mM sodium pervanadate, Complete Protease Inhibitor Cocktail (Roche)). Lysates were centrifuged for 15 minutes at 4° C. Protein concentration was determined using the BCA system (Sigma) and equal amounts of protein were loaded into each lane of a SDS-polyacrylamide gel. The proteins were transferred onto PVDF (Millipore) membranes and detected with anti-mouse or anti-rabbit secondary antibodies couples to horseradish peroxidase (HRP) and chemiluminescence using the SuperSignal West Dura (Pierce). Membranes were stripped using the Restore Western Blot Stripping Buffer (Pierce).

GFP-FKHR fusion protein = test: GFP-FKHR cellular localization in transfected PC-3 cells; assay type: cell-based, human; conditions: LY294002 50 μM 1 hour; sodium selenate or selenomethionine 0.5 mM 3 hours
Protocol: The day before transfection, 5×10^5 PC-3 cells were seeded in 24-well dishes and transiently transfected with 0.8 μg of pcDNA3-GFP-FKHRwt construct (kind gift Dr Bill Sellers, Dana-Farber Institute, Boston) using Lipofectamine 2000 (Invitrogen). Cells were permeabilized in 0.2% Triton X-100 and the nuclear contents stained with DAPI. Coverslips were mounted with fluorescent mounting medium (DAKO). The cellular distribution of green fluorescence was determined in dual fluorescent cells using a Leica epifluorescent microscope.
Reintroducing PTEN function in such cells induces translocation of FKHR to the nucleus eventually causing G1 arrest in PTEN-null cells (Nakamura et al 2000, supra).

Structure (SMILES): O=[Se](O)O [Selenous acid]
- activation of Akt (phosphorylated Akt relative to total Akt) (Akt): induce activation of Akt above control (con) levels

Structure (SMILES): N[C@@H](C[SeH])C(=O)O [Selenocysteine]
- activation of Akt (phosphorylated Akt relative to total Akt) (Akt): induce activation of Akt above control (con) levels

Structure (SMILES): C[Se](=O)O [Methylseleninic acid]
- apoptosis and phosphorylation of Akt in DU-145 cells ([1]; 3 μM): not associated with apoptosis or with decreased phosphorylation of Akt
- G1 arrest and apoptosis markers in DU145 cells [1]: induces G1 arrest, as well as DNA fragmentation and caspase mediated cleavage of PARP
- G1 arrest of DU-145 cells ([1]; doses as low as 3 μM): induced G1 arrest
- Akt activation in DU-145 cells ([1]; higher doses of 5 μM): dose-dependent decline in Akt activation
- apoptosis in DU-145 cells ([1]; higher doses of 5 μM): initiation of caspase-mediated apoptosis

Structure (SMILES): S=[Se]=S [selenium sulfide]
- activation of Akt (phosphorylated Akt relative to total Akt) (Akt): induce activation of Akt above control (con) levels

Structure (SMILES): O=[Se](O)O [sodium selenite]
- cytotoxic effect (Trypan Blue exclusion) [2]: cytotoxic effect
- cellular tubulin degradation (β-tubulin; 100 μM, 250 μM or 500 μM, 16 hours): marked degradation
- β-tubulin levels (β-tubulin; 500 μM, increasing time periods): concomitant decrease in β-tubulin levels
- time of treatment to DNA damage (Histone H2A.X): ≤ 30 min
- toxicity to cells [3]: toxic to cells

Structure (SMILES): O=[Se]=O [selenium dioxide]
- activation of Akt (phosphorylated Akt relative to total Akt) (Akt): induce activation of Akt above control (con) levels

Structure (SMILES): C[Se]CC[C@H](N)C(=O)O [selenomethionine, reference compound]
- PC-3 cell proliferation (MTT proliferative index) (PC-3 cells): less effective in reducing cell proliferation
- p27KIP1 total protein levels, inorganic versus organic selenium [4]: little effect
- relocalization of GFP-FKHR from the cytoplasm to the nucleus (GFP-FKHR fusion protein): unable to induce relocalization

Reference: patent US20080081039A1, “Inorganic Selenium For Treatment Of Cancer” (priority 2004, published 2008)
